Where two headings read alike, the source gives them in different places.
How the values were obtained:
[1] = molecular target: T1, MOR (Homo sapiens, UniProt P35372); test: cell-based; assay type: cell-based; set-up: expressed in transfected cells; host or cells: CHO-hMOR (membrane variant); SH-SY5Y-hMOR also named
Protocol: Four thousand cells per well were split into 384-well low-volume plate (VWR) with Opti-MEM (Invitrogen) supplemented with 1% FBS for 3 hours at 37° C. except SH-SY5Y-hMOR cells, which were plated for 1 hour at 37° C. Cells were then treated with drugs, […] forskolin for 30 min at room temperature.
Cells were then homogenized by a Dounce homogenizer 15 times in an ice-cold buffer [50 mM Hepes (pH 7.4)], followed by centrifugation at 500 g at 4° C. for 5 min. The supernatant was transferred to a 1.5-ml tube on ice, and the pellet was resuspended, homogenized, and centrifuged at 500 g at 4° C. for 5 min. Then, the supernatant was combined and spun at 20,000 g at 4° C. for 10 min. The membrane pellet was resuspended in an ice-cold buffer [50 mM Hepes (pH 7.4)] at concentrations of […]. Membranes were stored at −80° C. until use. For forskolin-stimulated cAMP accumulation assay, membranes were diluted in an assay buffer (50 mM Hepes, 10 mM MgCl2, 100 mM NaCl, 200 mM adenosine 5′-triphosphate, 10 mM GTP, 100 mM 3-isobutyl-1-methylxanthine, 20 mM forskolin, and 30 mM bovine serum albumin) and plated at […] of protein in each well. Membranes were treated with test compounds for 30 min at room temperature. The cAMP levels were determined as per the manufacturer's instructions (Cisbio cAMP HiRange assay).

[2] = molecular target: T1, MOR; assay type: cell-based; set-up: expressed in transfected cells; host or cells: CHO-hMOR (membrane variant); SH-SY5Y-hMOR also named
[3] = molecular target: T1, MOR; test: cell-based; assay type: cell-based; set-up: host or cells: U2OS-β-arrestin2-EFC-hMOR
Protocol: The PathHunter β-arrestin assay. The assay was performed according to the manufacturer's protocol (DiscoveRx) and as described previously. Briefly, 5000 U2OS-β-arrestin2-EFC-hMOR cells were plated in 384-well white plates with Opti-MEM media (Invitrogen) containing 1% FBS±pertussis toxin (100 ng/ml) overnight. The next day, cells were treated with compounds for 90 min at 37° C., followed by a 1-hour incubation of detection reagent at room temperature. Luminescence values were determined by using a Synergy HT luminometer (BioTek).

[4] = tested on: Male Swiss-Webster mice; test: Respiration rate and arterial oxygen saturation (MouseOx pulse oximeter) in conscious mice; details: for respiratory depression in mice: equi-analgesic dose range of morphine
Protocol: Measurement of respiration rate and arterial oxygen saturation. […] They were housed (five in a cage) in a temperature-controlled environment with a 12-hour light-dark cycle and were supplied with food and water ad libitum. Mice were acclimated for a week in the central animal facility before behavioral testing. On the day of the experiment, mice were brought to the room and acclimated for 45-60 min in the observation boxes. Respiration and oxygen saturation (SpO2) were measured using MouseOx Plus Rat and Mouse Pulse Oximeter (Starr Life Sciences Corp, Oakmont, USA) in conscious, freely moving animals. […] Mice were then placed into observation boxes and recording was started 5 min later to eliminate any anesthesia effect.
Data are expressed as mean±standard error of the mean (S.E.M.), and p<0.05 was accepted as statistically significant. GraphPad Prism, version 7, was used for data analysis.

[5] = molecular target: T1, MOR; set-up: host or cells: U2OS-β-arrestin2-EFC-hMOR; details: cited from earlier work
[6] = tested on: δ and μ opioid receptors; test: In vitro potency ratio at δ and μ opioid receptors; assay type: cell-based
[7] = molecular target: T2, KOR (Homo sapiens, UniProt P41145); test: KOR cAMP agonist assay; assay type: cell-based; details: Table 1; read-out: KOR cAMP Agonist Potency ± SEM
T2 sequence (P41145 whole entry): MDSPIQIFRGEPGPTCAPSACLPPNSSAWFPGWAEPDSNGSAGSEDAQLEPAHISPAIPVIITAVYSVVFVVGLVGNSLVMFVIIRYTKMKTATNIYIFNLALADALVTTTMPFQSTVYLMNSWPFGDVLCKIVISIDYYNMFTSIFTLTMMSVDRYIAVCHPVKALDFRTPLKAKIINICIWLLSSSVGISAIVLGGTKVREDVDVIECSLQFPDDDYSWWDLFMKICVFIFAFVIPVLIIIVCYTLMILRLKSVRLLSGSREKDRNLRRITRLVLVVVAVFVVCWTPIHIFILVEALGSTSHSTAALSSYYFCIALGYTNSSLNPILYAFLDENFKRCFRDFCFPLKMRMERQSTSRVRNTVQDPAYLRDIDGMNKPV

[8] = molecular target: μ opioid receptor (Rattus norvegicus, UniProt P33535); test: biochemical
μ opioid receptor, sequence (P33535 whole entry): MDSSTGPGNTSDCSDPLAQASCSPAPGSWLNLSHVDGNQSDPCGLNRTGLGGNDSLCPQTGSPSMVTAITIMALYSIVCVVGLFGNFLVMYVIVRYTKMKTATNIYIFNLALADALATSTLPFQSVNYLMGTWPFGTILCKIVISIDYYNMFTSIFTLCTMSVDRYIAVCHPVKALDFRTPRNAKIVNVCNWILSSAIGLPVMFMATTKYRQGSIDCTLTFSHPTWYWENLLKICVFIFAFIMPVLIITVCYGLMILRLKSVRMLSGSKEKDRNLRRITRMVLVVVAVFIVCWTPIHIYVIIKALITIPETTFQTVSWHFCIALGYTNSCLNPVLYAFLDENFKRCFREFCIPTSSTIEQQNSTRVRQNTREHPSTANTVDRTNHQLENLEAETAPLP

[9] = molecular target: T2, KOR; test: KOR cAMP antagonist assay; assay type: cell-based
[10] = molecular target: T3, δ opioid receptor (Rattus norvegicus, UniProt P33533); test: Binding assay, 3H DADLE, rat tissue; details: triplicate, read-out: 3H DADLE δ Ki ± SEM
T3 construct: from tissue; host or cells: rat tissue (per the earlier reading)
T3 sequence (P33533 whole entry): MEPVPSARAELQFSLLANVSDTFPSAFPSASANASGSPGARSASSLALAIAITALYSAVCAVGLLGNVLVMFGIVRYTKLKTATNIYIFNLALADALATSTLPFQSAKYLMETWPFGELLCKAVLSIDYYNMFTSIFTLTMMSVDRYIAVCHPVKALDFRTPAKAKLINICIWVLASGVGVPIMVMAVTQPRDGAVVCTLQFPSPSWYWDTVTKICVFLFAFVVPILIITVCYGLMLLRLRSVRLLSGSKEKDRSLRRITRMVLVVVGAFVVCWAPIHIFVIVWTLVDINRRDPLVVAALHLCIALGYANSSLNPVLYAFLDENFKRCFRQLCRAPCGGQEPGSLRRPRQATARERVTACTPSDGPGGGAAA

[11] = molecular target: T4, κ opioid receptor (Rattus norvegicus, UniProt P34975); test: Binding assay, 3H U69,593, rat tissue; details: rat tissue, triplicate; read-out: 3H U69,593 κ Ki ± SEM
T4 construct: from tissue; host or cells: rat tissue (per the earlier reading)
T4 sequence (P34975 whole entry): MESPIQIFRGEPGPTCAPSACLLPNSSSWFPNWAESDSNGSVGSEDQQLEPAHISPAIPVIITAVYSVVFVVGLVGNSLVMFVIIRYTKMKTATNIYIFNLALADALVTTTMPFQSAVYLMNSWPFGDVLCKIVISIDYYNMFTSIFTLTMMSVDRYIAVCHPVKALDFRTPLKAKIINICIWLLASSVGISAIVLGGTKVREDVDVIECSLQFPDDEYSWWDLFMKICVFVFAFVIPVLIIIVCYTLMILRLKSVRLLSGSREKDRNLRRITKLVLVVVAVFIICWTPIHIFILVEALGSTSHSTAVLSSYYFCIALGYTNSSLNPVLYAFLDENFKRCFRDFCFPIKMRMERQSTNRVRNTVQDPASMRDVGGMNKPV

[12] = Table 2, inhibition of forskolin-induced cAMP accumulation, read-out: MOR cAMP Agonist Potency ± SEM
[13] = Table 2, read-out: MOR cAMP Agonist (% Efficacy) (converted)
[14] = Table 3, read-out: MOR cAMP Agonist (% Efficacy) (converted)
[15] = read-out: MOR Mediated B-arrestin Recruitment (% Control, Emax DAMGO), Table 2
[16] = Table 3, inhibition of forskolin-induced cAMP accumulation, read-out: MOR cAMP Agonist Potency ± SEM
[17] = Table 3, read-out: MOR Mediated B-arrestin Recruitment
[18] = Table 2, read-out: MOR Mediated B-arrestin Recruitment
[19] = Table 4, read-out: MOR cAMP Agonist Potency ± SEM

T1 sequence (P35372 whole entry): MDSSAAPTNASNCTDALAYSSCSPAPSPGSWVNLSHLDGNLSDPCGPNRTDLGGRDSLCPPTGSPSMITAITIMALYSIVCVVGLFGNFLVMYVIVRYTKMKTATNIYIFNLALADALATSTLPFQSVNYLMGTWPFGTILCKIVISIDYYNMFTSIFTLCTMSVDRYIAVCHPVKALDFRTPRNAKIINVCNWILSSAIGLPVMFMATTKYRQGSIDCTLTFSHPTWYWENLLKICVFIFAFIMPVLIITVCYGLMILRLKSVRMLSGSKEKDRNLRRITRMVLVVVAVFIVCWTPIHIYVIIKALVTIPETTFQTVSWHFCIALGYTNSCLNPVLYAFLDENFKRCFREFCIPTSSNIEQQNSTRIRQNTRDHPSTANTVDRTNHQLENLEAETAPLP

## OC/C=C/[C@H]1[C@@H]2CCC[C@@]1(c1cccc(O)c1)CCN2CCc1ccccc1 [Compound 37, 3-((1S,5R,9R)-9-((E)-3-Hydroxyprop-1-en-1-yl)-2-phenethyl-2-azabicyclo[3.3.1]nonan-5-yl)phenol]
[1]; [12]
  EC50: 2.31 ± 0.78 nM
[1]; [13]
  Emax: 33.5%
[2]; Table 2
  Bias Factor: 6794

## Oc1cccc([C@]23CCC[C@H]([C@H]2O)N(C[C@H]2C[C@@H]2c2ccccc2)CC3)c1 (stereo in doubt) [Compound 45, (1R,5S,9R)-5-(3-hydroxyphenyl)-2-((trans-2-phenylcyclopropyl)methyl)-2-azabicyclo[3.3.1]nonan-9-ol]
[1]
  EC50: 0.12 nM
[1]; read-out: MOR cAMP Agonist (% Efficacy)
  Emax: 100%
[3]
  EC50: 22 nM
[3]; read-out: MOR Mediated B-arrestin Recruitment (% Control, Emax DAMGO)
  Emax: 22%
[2]
  Bias Factor: 6.1

## Oc1cccc(C23CCC[C@H]([C@H]2O)N(C/C=C/c2ccccc2)CC3)c1 (stereo in doubt) [Compound 52, (1R,5R,9S)-2-Cinnamyl-5-(3-hydroxyphenyl)-2-azabicyclo[3.3.1]nonan-9-ol]
[1]; [14]
  Emax: 100%
[2]; Table 3
  Bias Factor: 27.120

## CCOC(=O)/C=C1\[C@H]2CCC[C@]1(c1cccc(O)c1)CCN2CCc1ccccc1 [Compound 26, Ethyl (Z)-2-(5-(3-hydroxyphenyl)-2-phenethyl-2-azabicyclo[3.3.1]nonan-9-ylidene)acetate]
[1]; [13]
  Emax: 100%
[3]; [15]
  Emax: 22.2%
[2]; Table 2
  Bias Factor: 179

## Oc1cccc2c1O[C@H]1CN(CCc3ccccc3)[C@H]3CCC[C@@]21C3 [Compound 70, (3S,6aR,11aR)-2-Phenethyl-1,3,4,5,6,11a-hexahydro-2H-3,6a-methano-benzofuro[2,3-c]azocin-10-ol]
[1]; [16]
  EC50: 0.5 ± 0.24 nM
[1]; [14]
  Emax: 32.8%
[3]; [17]
  EC50: > 25000 nM
[2]; Table 3
  Bias Factor: 21454

## C[C@@H]1[C@@H]2CCC[C@@]1(c1cccc(O)c1)CCN2CCc1ccccc1 (single isomer, unassigned) [(−)-48]
[1]; [16]
  EC50: 12.1 ± 4.01 nM
[3]; [17]
  EC50: > 25000 nM

## CCOC(=O)C[C@@H]1[C@H]2CCC[C@]1(c1cccc(O)c1)CCN2CCc1ccccc1 [Compound 27, Ethyl 2-(5-(3-hydroxyphenyl)-2-phenethyl-2-azabicyclo[3.3.1]nonan-9-yl)acetate]
[1]; [12]
  EC50: 14.6 ± 3.99 nM
[1]; [13]
  Emax: 90.4%
[3]; [18]
  EC50: 175 ± 42.6 nM
[3]; [15]
  Emax: 1.5%
[2]; Table 2
  Bias Factor: 6.7

## CN1CC[C@]23c4c5ccc(O)c4O[C@H]2[C@@H](O)C=C[C@H]3[C@H]1C5 [Morphine, reference compound]
[4]
  respiratory depression in mice: did repress respiration

## COc1ccsc1CNCC[C@@]1(c2ccccn2)CCOC2(CCCC2)C1 [TRV130]
[5]
  beta-arrestin recruitment (in words), noted for known compound: does recruit beta-arrestin slightly

## O=C1CCC2C3Cc4ccc(O)c5c4[C@@]2(CCN3CCc2ccc(Br)cc2)[C@H]1O5 (stereo partly drawn) [Compound 72, 3-(4-Bromophenethyl)-9-hydroxy-2,3,4,4a,5,6-hexahydro-1H-4,12-methanobenzofuro[3,2-e]isoquinolin-7(7aH)-one]
[1]; [19]
  EC50: 0.15 ± 0.04 nM
[1]; in vitro data
  agonist character at the mu-receptor (in words): potent μ agonist
[6]
  δ/μ ratio (in vitro potency ratio at δ and μ opioid receptors): approximately 5

## COC(=O)CC[C@H]1[C@@H]2CCC[C@@]1(c1cccc(O)c1)CCN2CCc1ccccc1 [Compound 8, Methyl 3-((1S,5R,9R)-5-(3-hydroxyphenyl)-2-phenethyl-2-azabicyclo[3.3.1]nonan-9-yl)propanoate]
[7]
  EC50: > 10000 nM
[8]
  Ki: 0.9 ± 0.04 nM
[9]; Table 1
  KOR cAMP Antagonist Potency ± SEM: 2.0 ± 0.4 nM
[9]; in vitro data
  activity at the kappa-receptor (in words): kappa-receptor antagonist
[10]
  Ki: 118 ± 7.41 nM
[3]
  beta-arrestin recruitment (in words): do not
[3]; Table 1, read-out: MOR Mediated β-arrestin Recruitment
  EC50: > 25000 nM
[3]; read-out: MOR Mediated β-arrestin Recruitment (% Control, Emax DAMGO), Table 1
  Emax: 0%
[11]
  Ki: 23.2 ± 3.11 nM

## O=C1CCC2C3Cc4ccc(O)c5c4[C@@]2(CCN3CCc2ccc(Cl)cc2)[C@H]1O5 (stereo partly drawn) [Compound 71, 3-(4-Chlorophenethyl)-9-hydroxy-2,3,4,4a,5,6-hexahydro-1H-4,12-methanobenzofuro[3,2-e]isoquinolin-7(7aH)-one]
[4]
  respiratory depression in mice: did not depress respiration
[4]; mice, s.c., 0.01-0.1 mg/kg
  effect on respiration rate (AUC 6 min to 45 min post injection) compared to saline: no effect on respiration rate
[1]; Table 4, read-out: MOR cAMP Agonist (% Efficacy) (converted)
  Emax: 98.8%
[1]; [19]
  EC50: 0.05 ± 0.03 nM
[3]; Table 4, read-out: MOR Mediated B-arrestin Recruitment
  EC50: 2.44 ± 0.45 nM
[3]; read-out: MOR Mediated B-arrestin Recruitment (% Control, Emax DAMGO), Table 4
  Emax: 44.8%
[6]
  δ/μ ratio (in vitro potency ratio at δ and μ opioid receptors): approximately 1
[2]; Table 4
  Bias Factor: 0.82

## OC[C@@H]1CC[C@@]2(c3cccc(O)c3)CCN(CCc3ccccc3)[C@H]1C2 (stereo in doubt) [Compound 35, 3-(8-(Hydroxymethyl)-2-phenethyl-2-azabicyclo[3.3.1]nonan-5-yl)phenol]
[1]; [12]
  EC50: 3.07 ± 2.2 nM
[1]; [13]
  Emax: 10.9%
[3]; [18]
  EC50: > 25000 nM
[2]; Table 2
  Bias Factor: 1254

## CCOC(=O)C[C@H]1[C@@H]2CCC[C@@]1(c1cccc(O)c1)CCN2CCc1ccccc1 [Compound 28, Ethyl 2-(5-(3-hydroxyphenyl)-2-phenethyl-2-azabicyclo[3.3.1]nonan-9-yl)acetate]
[1]; [12]
  EC50: 3.97 ± 1.8 nM
[1]; [13]
  Emax: 78%
[3]; [18]
  EC50: 58.8 ± 34.7 nM
[3]; [15]
  Emax: 2.18%
[2]; Table 2
  Bias Factor: 4.8

## C[C@@H]1[C@@H]2CCC[C@@]1(c1cccc(O)c1)CCN2CCc1ccccc1 [(−)-48]
[2]; Table 3
  Bias Factor: 2056

## C[C@@H](NC(=O)[C@@H](N)Cc1ccc(O)cc1)C(=O)NCC(=O)N(C)[C@@H](Cc1ccccc1)C(=O)NCCO [DAMGO, reference compound]
[2]
  Bias Factor: 1

## CCC[C@H]1[C@@H]2CCC[C@@]1(c1cccc(O)c1)CCN2CCc1ccccc1 [Compound 15, 3-(2-Phenethyl-9-propyl-2-azabicyclo[3.3.1]nonan-5-yl)phenol]
[1]; [12]
  EC50: 0.95 ± 0.35 nM
[1]; [13]
  Emax: 63.3%
[2]; Table 2
  Bias Factor: 23,442

## C[C@H]1[C@H]2CCC[C@@]1(c1cccc(O)c1)CCN2CCc1ccccc1 [(+)-48]
[1]; [16]
  EC50: 0.4 ± 0.12 nM
[1]; [14]
  Emax: 91%
[3]; [17]
  EC50: 7.72 ± 4.6 nM
[3]; read-out: MOR Mediated B-arrestin Recruitment (% Control, Emax DAMGO), Table 3
  Emax: 1.8%
[2]; Table 3
  Bias Factor: 6.7

## C[C@@H]1C2CCC[C@@]1(c1cccc(O)c1)CCN2CCc1ccccc1 (single isomer, unassigned; (-)) [(−)-48]
[1]; [14]
  Emax: 71%

From patent US11352365B2, “Biased potent opioid-like agonists as improved medications to treat chronic and acute pain and methods of using the same” (THE UNITED STATES OF AMERICA, AS REPRESENTED BY THE …, priority 2018, dated 2022)
